BindingDB's records for doi:10.1016/j.bmc.2005.01.048 (Pfizer, 2005)
pIC50: −log10 of the molar value.

Molecular target: T1, Renin (Homo sapiens, UniProt P00797)
T1 sequence (P00797 whole entry): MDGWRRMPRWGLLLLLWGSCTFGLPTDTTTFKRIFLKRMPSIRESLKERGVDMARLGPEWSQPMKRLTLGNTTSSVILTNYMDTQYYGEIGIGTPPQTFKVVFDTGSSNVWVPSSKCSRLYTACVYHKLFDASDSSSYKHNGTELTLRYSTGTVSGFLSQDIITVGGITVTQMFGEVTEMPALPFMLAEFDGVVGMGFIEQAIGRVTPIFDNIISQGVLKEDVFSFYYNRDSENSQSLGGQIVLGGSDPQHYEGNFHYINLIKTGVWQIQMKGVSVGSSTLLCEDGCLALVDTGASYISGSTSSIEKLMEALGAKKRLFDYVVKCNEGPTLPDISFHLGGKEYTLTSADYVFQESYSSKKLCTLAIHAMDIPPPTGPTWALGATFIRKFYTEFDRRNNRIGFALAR
Assay: In Vitro Renin IC50 Determinations (Tandem GFP FRET Assay)
Details: pH 7.4; 22 °C
From the text: The renin assay utilized a tandem Green Flourescent Protein (tGFP) substrate that was hydrolyzed by human rennin. The tGFP substrate contained a nine amino acid (Ile-His-Pro-Phe-His-Leu-Val-Ile-His) recognition sequence for human renin flanked by two GPF proteins (W1B and Topaz). Human rennin cleaves the leucine-valine site of the substrate linker. Once cleaved, the emission ratio changes. The change was monitored by the ratio of 530 nm (topaz) over 475 nm (W1B) with the excitation set at 432 nm and the cutoff at 515 nm. The assay used a 384 well plate format that was read using a Gemini XS Fluorometric plate reader (Molecular Devices). Compounds were screened at a starting concentration of 10 uM and used a fourfold eleven-point dilution regiment.

Row | SMILES | pIC50
1 | COc1ccccc1COCCCOc1ccc(N2C(=O)CNC[C@@H]2COc2ccc3c(c2)N(CCNC(C)=O)CCC3)cc1 | 9.52
2 | COc1ccccc1COCCCOc1ccc(N2CCNC[C@@H]2COc2ccc3ccccc3c2)cc1 [(2R)-1-(4-{3-[(2-methoxyphenyl)methoxy]propoxy}phenyl)-2-[(naphthalen-2-yloxy)methyl]piperazine] | 6.74
3 | COc1ccccc1COCCCOc1ccc(N2CCNC[C@@H]2COCc2ccc(-c3ccccc3)cc2)cc1 [(2R)-1-(4-{3-[(2-methoxyphenyl)methoxy]propoxy}phenyl)-2-{[(4-phenylphenyl)methoxy]methyl}piperazine] | 5.99
4 | COc1ccccc1COCCCOc1ccc(N2CCNC[C@@H]2COc2ccc3c(c2)N(CCNC(C)=O)CCC3)cc1 [N-[2-(7-{[(2R)-1-(4-{3-[(2-methoxyphenyl)methoxy]propoxy}phenyl)piperazin-2-yl]methoxy}-1,2,3,4-tetrahydroquinolin-1-yl)ethyl]acetamide] | 9.30
